# How the values were obtained:
# Format in all cases: biochemical
# TRKC = biological target: T1, TRKC (Homo sapiens, UniProt Q16288); experiment: Determination of inhibitory activity against TRKC kinase (ADP-Glo Kinase Assay); details: ATP 5 μM, Poly (4:1 Glu, Tyr) Peptide 0.03 mg/ml
# T1 construct: purchased Carna 08-196
# Experimental: (§1) Assay: Determination of Inhibitory Activity Against TRKA/B/C Kinases
# (§2) 1× volume of 5× kinase reaction buffer and 4× volume of water; 5 mM MgCl2; and 1 mM DTT.
# (§3) • 1). Gradiently diluting a compound 4-fold in a dilution plate with DMSO, with a starting compound concentration of 1000 nM. • 2). Diluting the compound 50-fold into 1× kinase reaction buffer and shaking it on a shaker for 20 minutes. • 3). Formulating 2× kinase with 1× of enzyme reaction buffer. • 4). Adding 2 μl kinase (formulated in step 3) to each well of the reaction plate. • 5). Adding 1 μl of the compound diluted in buffer to each well, sealing the plate with a sealing membrane and centrifuging the plate at 1000 g for 30 seconds and leaving it at room temperature for 10 minutes. • 6). Formulating 4×ATP & sub mixture with 1× enzyme reaction buffer and adding 1 μl of 4×ATP & sub mixture to the reaction plate. • 7). Sealing the plate with a sealing membrane and centrifuging the plate at 1000 g for 30 seconds and allowing it to react at room temperature for 60 minutes. • 8). Transferring 4 μl of ADP-Glo to 384 reaction plate and centrifuging the plate at 1000 rpm/min for 1 min, and then incubating it at 25° C. for 40 min. • 9). Transferring 8 μl of Detection solution to 384 reaction plate and centrifuging the plate at 1000 rpm/min for 1 min and incubating it at 25° C. for 40 min. • 10) Reading the RLU (Relative luminescence unit) signal using a Biotek multifunctional plate reader. The signal intensity was used to characterize the activity degree of kinase.
# (§4) The IC50 (half inhibition concentration) of a compound was obtained using the following non-linear fitting equation, wherein data analysis was performed using Graphpad 6.0 software.
# (§5) Y=Bottom+(Top−Bottom)/(1+10^((Log IC50−X)*Hill Slope)) • X: log value of compound concentration; and Y: inhibition rate (% inhibition)
# (§6) Data were exported from Biotek and analyzed manually. The ratios were converted to inhibition rates and IC50 was calculated by Prism GraphPad 6.0 from the inhibition rates. IC50 was calculated again by the ratios to verify accuracy of the results.
# TRKA = biological target: T2, TRKA (Homo sapiens, UniProt P04629); experiment: Determination of inhibitory activity against TRKA kinase (ADP-Glo Kinase Assay); details: ATP 5 μM, Poly (4:1 Glu, Tyr) Peptide 0.03 mg/ml
# T2 construct: purchased Carna 08-186
# T2 sequence (P04629 33-796): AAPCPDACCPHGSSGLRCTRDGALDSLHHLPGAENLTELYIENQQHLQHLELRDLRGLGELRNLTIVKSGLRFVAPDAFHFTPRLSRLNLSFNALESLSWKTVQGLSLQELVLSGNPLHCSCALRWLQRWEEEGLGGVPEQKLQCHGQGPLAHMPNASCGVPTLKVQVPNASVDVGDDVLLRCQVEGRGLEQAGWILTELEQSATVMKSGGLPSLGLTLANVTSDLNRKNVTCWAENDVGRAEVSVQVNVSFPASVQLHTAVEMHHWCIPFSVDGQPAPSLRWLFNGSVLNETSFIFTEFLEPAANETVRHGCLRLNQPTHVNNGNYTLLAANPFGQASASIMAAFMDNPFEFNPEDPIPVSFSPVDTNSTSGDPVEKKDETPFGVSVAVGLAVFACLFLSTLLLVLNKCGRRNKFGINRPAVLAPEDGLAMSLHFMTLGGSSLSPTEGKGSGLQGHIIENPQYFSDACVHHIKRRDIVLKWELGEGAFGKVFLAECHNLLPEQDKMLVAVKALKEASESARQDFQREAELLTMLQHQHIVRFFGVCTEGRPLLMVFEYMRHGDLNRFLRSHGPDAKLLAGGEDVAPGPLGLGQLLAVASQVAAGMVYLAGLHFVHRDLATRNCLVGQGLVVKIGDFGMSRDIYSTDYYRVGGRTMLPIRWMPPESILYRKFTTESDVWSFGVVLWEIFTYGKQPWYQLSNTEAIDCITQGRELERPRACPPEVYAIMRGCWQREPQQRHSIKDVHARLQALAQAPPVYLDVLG
# Experimental: as §1, §2, §3, §4, §5, §6
# TRKB = biological target: T3, TRKB (Homo sapiens, UniProt Q16620); experiment: Determination of inhibitory activity against TRKB kinase (ADP-Glo Kinase Assay); details: ATP 20 μM, Poly (4:1 Glu, Tyr) Peptide 0.03 mg/ml
# T3 construct: purchased SignalChem N17-11G
# T3 sequence (Q16620 32-822): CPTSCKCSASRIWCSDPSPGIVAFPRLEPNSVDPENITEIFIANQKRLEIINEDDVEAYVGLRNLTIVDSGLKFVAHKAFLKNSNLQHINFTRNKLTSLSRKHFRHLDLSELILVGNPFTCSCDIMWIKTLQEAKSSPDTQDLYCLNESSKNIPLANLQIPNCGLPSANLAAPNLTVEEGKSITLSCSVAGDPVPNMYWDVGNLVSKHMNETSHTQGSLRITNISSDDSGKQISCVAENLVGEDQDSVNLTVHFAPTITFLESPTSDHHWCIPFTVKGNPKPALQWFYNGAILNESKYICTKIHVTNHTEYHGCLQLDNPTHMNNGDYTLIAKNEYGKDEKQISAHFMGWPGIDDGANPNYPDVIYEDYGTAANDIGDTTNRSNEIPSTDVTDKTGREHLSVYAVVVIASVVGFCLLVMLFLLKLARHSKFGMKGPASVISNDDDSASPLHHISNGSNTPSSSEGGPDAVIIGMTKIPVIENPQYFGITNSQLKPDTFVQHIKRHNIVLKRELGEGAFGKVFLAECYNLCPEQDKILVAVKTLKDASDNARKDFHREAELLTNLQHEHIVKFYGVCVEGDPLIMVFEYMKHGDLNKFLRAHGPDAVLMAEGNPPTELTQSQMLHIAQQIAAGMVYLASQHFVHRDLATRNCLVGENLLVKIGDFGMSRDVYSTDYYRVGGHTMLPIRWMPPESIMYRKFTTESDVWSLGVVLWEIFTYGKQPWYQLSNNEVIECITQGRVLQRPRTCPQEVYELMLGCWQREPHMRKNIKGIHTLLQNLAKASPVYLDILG
# Experimental: as §1, §2, §3, §4, §5, §6
# T1 sequence (Q16288 32-839): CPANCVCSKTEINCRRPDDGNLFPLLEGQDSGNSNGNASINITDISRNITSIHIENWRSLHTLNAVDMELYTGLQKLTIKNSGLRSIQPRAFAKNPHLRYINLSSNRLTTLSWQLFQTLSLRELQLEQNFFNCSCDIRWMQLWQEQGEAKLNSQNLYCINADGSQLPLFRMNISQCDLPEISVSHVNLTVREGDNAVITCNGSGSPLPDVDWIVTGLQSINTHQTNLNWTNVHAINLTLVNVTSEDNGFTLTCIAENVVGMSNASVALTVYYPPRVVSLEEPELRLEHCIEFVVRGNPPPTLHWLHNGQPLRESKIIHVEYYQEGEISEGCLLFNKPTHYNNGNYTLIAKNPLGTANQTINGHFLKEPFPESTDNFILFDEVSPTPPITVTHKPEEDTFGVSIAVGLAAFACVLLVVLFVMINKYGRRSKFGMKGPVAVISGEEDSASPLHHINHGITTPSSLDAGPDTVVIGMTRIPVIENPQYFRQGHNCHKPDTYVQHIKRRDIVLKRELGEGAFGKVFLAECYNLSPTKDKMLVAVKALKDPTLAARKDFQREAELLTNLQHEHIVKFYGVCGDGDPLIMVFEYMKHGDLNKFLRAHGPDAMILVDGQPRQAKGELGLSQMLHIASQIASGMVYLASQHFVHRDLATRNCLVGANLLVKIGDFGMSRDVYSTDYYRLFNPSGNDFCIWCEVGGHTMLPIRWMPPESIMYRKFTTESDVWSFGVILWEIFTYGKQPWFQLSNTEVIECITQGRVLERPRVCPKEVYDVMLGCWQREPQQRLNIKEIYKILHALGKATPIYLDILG
Compound,IC50 (TRKC),IC50 (TRKA),IC50 (TRKB)
"CC(Oc1ccc2[nH]nc(-c3nc4c([nH]3)CN(CC3CCN(C5CCC5)CC3)C4)c2c1)c1cc(F)cc(F)c1 (stereo not drawn) [Example 27, 3-(5-((1-Cyclobutylpiperidin-4-yl)methyl)-1,4,5,6-tetrahydropyrrolo[3,4-d]imidazol-2-yl)-5-(1-(3,5-difluorophenyl)ethoxy)-1H-indazole]",3.5 nM,0.42 nM,3.1 nM
CC(Oc1ccc2[nH]nc(-c3nc4c([nH]3)CN(CC3(C)CCN(C(C)C)CC3)C4)c2c1)c1cc(F)cc(F)c1 (stereo not drawn) [Example 28],1.4 nM,0.53 nM,3.9 nM
"CCN1CCC(N2Cc3nc(-c4n[nH]c5ccc(OC(C)c6cc(F)cc(F)c6)cc45)[nH]c3C2)CC1 (stereo not drawn) [Example 38, 5-(1-(3,5-Difluorophenyl)ethoxy)-3-(5-(1-ethylpiperidin-4-yl)-1,4,5,6-tetrahydropyrrolo[3,4-d]imidazol-2-yl)-1H indazole]",3.6 nM,4.1 nM,1.9 nM
"CC(Oc1ccc2[nH]nc(-c3nc4c([nH]3)CN(CC3CCCN3)C4)c2c1)c1cc(F)cc(F)c1 (stereo not drawn) [Example 42, 5-(1-(3,5-Difluorophenyl)ethoxy)-3-(5-(pyrrolidin-2-ylmethyl)-1,4,5,6-tetrahydropyrrolo[3,4-d]imidazol-2-yl)-1H-indazole]",1.5 nM,1 nM,1.1 nM
"CCN1CCCC(N2Cc3nc(-c4n[nH]c5ccc(OC(C)c6cc(F)cc(F)c6)cc45)[nH]c3C2)C1 (stereo not drawn) [Example 43, 5-(1-(3,5-Difluorophenyl)ethoxy)-3-(5-(1-ethylpiperidin-3-yl)-1,4,5,6-tetrahydropyrrolo[3,4-d]imidazol-2-yl)-1H indazole]",2.9 nM,1.9 nM,1.4 nM
CC(Oc1ccc2[nH]nc(-c3nc4c([nH]3)CN(C3CC(N(C)C)C3)C4)c2c1)c1cc(F)cc(F)c1 (stereo not drawn) [Example 44],1.8 nM,1.4 nM,0.64 nM
"CC(Oc1ccc2[nH]nc(-c3nc4c([nH]3)CN(C3CCCC(N(C)C)C3)C4)c2c1)c1cc(F)cc(F)c1 (stereo not drawn) [Example 45, 3-(2-(5-(1-(3,5-difluorophenyl)ethoxy)-1H-indazol-3-yl)-4,6-dihydropyrrolo[3,4-d]imidazol-5(1H)-yl)-N,N-dimethyl cyclohexan-1-amine]",1.7 nM,1.6 nM,0.83 nM
"CC(Oc1ccc2[nH]nc(-c3nc4c([nH]3)CN(C3CCC(N(C)C)C3)C4)c2c1)c1cc(F)cc(F)c1 (stereo not drawn) [Example 46, 3-(2-(5-(1-(3,5-Difluorophenyl)ethoxy)-1H-indazol-3-yl)-4,6-dihydropyrrolo[3,4-d]imidazol-5(1H)-yl)-N,N-dimethyl cyclopentan-1-amine]",2.9 nM,10.6 nM,1.4 nM
CC(Oc1ccc2[nH]nc(-c3nc4c([nH]3)CN(CC3CCN(C)CC3)C4)c2c1)c1cc(F)cc(C#N)c1 (stereo not drawn) [Example 47],8.6 nM,14.2 nM,8.9 nM
"CCC(Oc1ccc2[nH]nc(-c3nc4c([nH]3)CN(CC3CCN(C)CC3)C4)c2c1)c1cc(F)cc(F)c1 (stereo not drawn) [Example 48, 5-(1-(3,5-Difluorophenyl)propoxy)-3-(5-((1-methylpiperidin-4-yl)methyl)-1,4,5,6-tetrahydropyrrolo[3,4-d]imidazol-2-yl)-1 H-indazole]",6.1 nM,4.5 nM,4.2 nM

# Second part, the compound after the results:
IC50 (TRKC),IC50 (TRKA),IC50 (TRKB),Compound
1.8 nM,1.5 nM,2.2 nM,"CC(Oc1ccc2[nH]nc(-c3nc4c([nH]3)CN(C(=O)N3CCN(C)CC3)C4)c2c1)c1cc(F)cc(F)c1 (stereo not drawn) [Example 29, (2-(5-(1-(3,5-Difluorophenyl)ethoxy)-1H-indazol-3-yl)-4,6-dihydropyrrolo[3,4-d]imidazol-5(1H)-yl)(4-methylpiperazin-1-yl)ketone]"
1.2 nM,0.94 nM,2 nM,"CC(Oc1ccc2[nH]nc(-c3nc4c([nH]3)CN(C(=O)OC3CCN(C)C3)C4)c2c1)c1cc(F)cc(F)c1 (stereo not drawn) [Example 30, 1-Methylpyrrolidin-3-yl 2-(5-(1-(3,5-difluorophenyl)ethoxy)-1H-indazol-3-yl)-4,6-dihydropyrrolo[3,4-d]imidazole-5(1H)-carboxylate]"
1.1 nM,1.1 nM,4.3 nM,"CC(Oc1ccc2[nH]nc(-c3nc4c([nH]3)CN(C(=O)OC3CN(C)C3)C4)c2c1)c1cc(F)cc(F)c1 (stereo not drawn) [Example 31, 1-Methylazetidin-3-yl 2-(5-(1-(3,5-difluorophenyl)ethoxy)-1H-indazol-3-yl)-4,6-dihydropyrrolo[3,4-d]imidazole-5(1H)-carboxylate]"
0.43 nM,0.23 nM,0.63 nM,C[C@@H](Oc1ccc2[nH]nc(-c3nc4c([nH]3)CN(CC3CCN(C)CC3)C4)c2c1)c1cc(F)cc(F)c1 [Example 32]
1.2 nM,0.46 nM,4.1 nM,"CC(Oc1ccc2[nH]nc(-c3nc4c([nH]3)CN(C(=O)OC3CCCN(C)C3)C4)c2c1)c1cc(F)cc(F)c1 (stereo not drawn) [Example 33, 1-Methylpiperidin-3-yl 2-(5-(1-(3,5-difluorophenyl)ethoxy)-1H-indazol-3-yl)-4,6-dihydropyrrolo[3,4-d]imidazole-5(1H)-carboxylate]"
4.5 nM,4.6 nM,2 nM,"CC(Oc1ccc2[nH]nc(-c3nc4c([nH]3)CN(C(C)C3CN(C)C3)C4)c2c1)c1cc(F)cc(F)c1 (stereo not drawn) [Example 34, 5-(1-(3,5-Difluorophenyl)ethoxy)-3-(5-(1-(1-methylazetidin-3-yl)ethyl)-1,4,5,6-tetrahydropyrrolo[3,4-d]imidazol-2-yl)-1H-indazole]"
2.3 nM,6.8 nM,1 nM,"CC(Oc1ccc2[nH]nc(-c3nc4c([nH]3)CN(C3CC5(C3)CN(C)C5)C4)c2c1)c1cc(F)cc(F)c1 (stereo not drawn) [Example 39, 5-(1-(3,5-Difluorophenyl)ethoxy)-3-(5-(2-methyl-2-azaspiro[3.3]heptan-6-yl)-1,4,5,6-tetrahydropyrrolo[3,4-d]imidazol-2-yl)-1H-indazole]"
7.7 nM,7.4 nM,3 nM,"CC(Oc1ccc2[nH]nc(-c3nc4c([nH]3)CN(C3CCN(C)C3)C4)c2c1)c1cc(F)cc(F)c1 (stereo not drawn) [Example 41, 5-(1-(3,5-Difluorophenyl)ethoxy)-3-(5-(1-methylpyrrolidin-3-yl)-1,4,5,6-tetrahydropyrrolo[3,4-d]imidazol-2-yl)-1H indazole]"
